Holding throughout (assay): two-electrode voltage clamp, Xenopus oocytes
Format in all cases: cell-based

In test [1] the target is T1, α6β3 GABAAR (binary) (Mus musculus, UniProt P16305+P63080).
T1 construct: gene Gabra6; full-length cDNAs, injected 1:1 in Xenopus oocyte nucleus; heteropentamer without third subunit

The target of test [2] is T2, α6β3δ GABAAR (extrasynaptic) (Mus musculus, UniProt P16305+P22933+P63080).
T2 construct: gene Gabra6; full-length cDNAs, injected 1:1:5 in Xenopus oocyte nucleus; heteropentamer
The following applies: read-out: IC50 (μM, ± SEM). An excerpt: two-electrode voltage clamp, Xenopus oocytes on α6β3δ GABAAR (extrasynaptic)

Test [3] concerns the target T1, α6β3 GABAAR (binary). The following applies: read-out: IC50 (μM, ± SEM). An excerpt: two-electrode voltage clamp, Xenopus oocytes on α6β3 GABAAR (binary)
A further test deals with T3, β3 homopentamer (Mus musculus, UniProt P63080).
T3 construct: gene Gabrb3; full-length cDNA in pGW1 (= pRK5), expressed in Xenopus oocytes; homopentamer
The following applies: current through spontaneously open β3; 1, 10 and 100 μM FPN; no GABA; positive modulator.

T1 sequence (P16305 20-453): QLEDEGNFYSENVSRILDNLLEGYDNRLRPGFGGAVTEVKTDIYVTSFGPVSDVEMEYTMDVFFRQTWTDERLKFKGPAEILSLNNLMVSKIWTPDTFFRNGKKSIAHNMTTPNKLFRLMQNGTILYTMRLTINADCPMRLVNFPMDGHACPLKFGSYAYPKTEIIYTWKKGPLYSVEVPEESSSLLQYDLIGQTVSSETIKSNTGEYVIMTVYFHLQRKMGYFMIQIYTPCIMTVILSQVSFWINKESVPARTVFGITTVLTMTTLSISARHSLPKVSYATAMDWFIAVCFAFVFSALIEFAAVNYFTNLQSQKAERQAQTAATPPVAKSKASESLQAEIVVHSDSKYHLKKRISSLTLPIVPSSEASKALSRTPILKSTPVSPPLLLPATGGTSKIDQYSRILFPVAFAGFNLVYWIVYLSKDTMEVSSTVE
T1 sequence (P63080 26-473): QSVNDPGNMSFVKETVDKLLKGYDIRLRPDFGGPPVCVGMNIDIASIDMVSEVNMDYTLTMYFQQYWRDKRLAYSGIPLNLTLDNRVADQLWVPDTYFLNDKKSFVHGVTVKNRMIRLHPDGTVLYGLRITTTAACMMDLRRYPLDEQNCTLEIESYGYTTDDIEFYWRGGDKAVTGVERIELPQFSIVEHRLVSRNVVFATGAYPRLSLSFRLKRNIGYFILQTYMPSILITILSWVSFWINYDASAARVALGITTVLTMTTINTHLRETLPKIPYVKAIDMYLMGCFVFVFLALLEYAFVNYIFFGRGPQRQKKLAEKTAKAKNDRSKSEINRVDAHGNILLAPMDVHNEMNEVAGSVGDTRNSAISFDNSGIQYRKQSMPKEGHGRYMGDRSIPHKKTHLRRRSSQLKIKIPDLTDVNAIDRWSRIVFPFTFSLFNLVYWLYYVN
T3 sequence (P63080 26-473): as above
T2 sequence (P63080 26-473): as above
T2 sequence (P22933 25-449): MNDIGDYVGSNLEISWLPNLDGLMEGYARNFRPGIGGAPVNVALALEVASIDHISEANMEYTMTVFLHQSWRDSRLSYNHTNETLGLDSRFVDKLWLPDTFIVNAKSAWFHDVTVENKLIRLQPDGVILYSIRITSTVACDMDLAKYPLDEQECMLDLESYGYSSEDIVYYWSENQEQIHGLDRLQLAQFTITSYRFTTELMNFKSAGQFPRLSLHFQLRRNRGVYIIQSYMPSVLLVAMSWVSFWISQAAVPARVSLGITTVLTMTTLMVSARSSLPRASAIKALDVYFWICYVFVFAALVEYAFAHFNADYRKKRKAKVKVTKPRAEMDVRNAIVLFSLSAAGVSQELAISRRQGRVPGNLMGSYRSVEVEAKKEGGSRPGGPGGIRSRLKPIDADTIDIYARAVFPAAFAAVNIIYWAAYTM
T2 sequence (P16305 20-453): as the sequence (P16305 20-453) above

On α6β3 GABAAR (binary) [1], `NCCCC(=O)O` [GABA] had an EC50 of 0.43 ± 0.01 µM.

Consider `N#Cc1nn(-c2c(Cl)cc(C(F)(F)F)cc2Cl)c(N)c1[S+]([O-])C(F)(F)F` (stereo not shown) [fipronil], for which the figures for the IC50 (in test [2]; at α6β3 GABAAR (binary) [3]) were 20.7 ± 2.6 µM and 2.4 ± 0.4 µM, respectively. In addition, on β3 homopentamer, the “two-electrode voltage clamp, Xenopus oocytes” value is given as “The current density increases as a function of FPN concentrations”.

One may read the EC50 as the midpoint of the concentration-response curve. A lower EC50 goes with a more potent agent. Broadly, the IC50 is the concentration that inhibits the measured activity by half.
